Laboratory results reported in patent US20120202856A1, “SUBSTITUTED BENZIMDAZOLE DERIVATIVES USEFUL AS TRPM8 RECEPTOR MODULATORS” (priority 2011, published 2012).
Where “and” joins values, the source holds several entries; their conditions need not be identical. Equal entries are not always repeated. Structures can show the parent of a compound that is named as a salt. Where two headings read alike, the source gives them in different places.

How the values were obtained:
canine TRPM8 = biological target: T1, canine TRPM8 (Canis lupus familiaris, UniProt Q1A7N1); experiment: In Vitro Canine TRPM8 Functional Assay (intracellular Ca2+ fluorescence, icilin activation, HEK293 cells); type: cell-based; details: for IC50: HEK293 cells expressing canine TRPM8, icilin activation, individually measured values (batches/salt forms), read-out: IC50 (nM), in vitro TRP M8 Activity; for % Inh (%) @0.2 μM, in vitro TRP M8 Activity: 0.2 μM test compound; for % Inh (%) @0.2 μM, in vitro TRP M8 Activity / inhibition at 0.2 µM: individually measured values
T1 construct: expressed in transfected cells
Outline: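 Inhibition of icilin-evoked calcium influx measured by Calcium 3 fluorescence (FLIPR or FDSS) in canine TRPM8 HEK293 cells. After basal subtraction, data expressed as percent of maximum; quadruplicate means fitted by sigmoidal dose–response to give IC50.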

[1] = tested on: icilin-induced “wet-dog” shakes (WDS); experiment: Inhibition of Icilin-Induced “Wet-Dog” Shakes in Rats; type: in vivo, Sprague Dawley rats; details: po; for inhibition in vivo at 10 mg/kg / inhibition in vivo at 3 mg/kg: read-out: Icilin % Inhibition @1.5 hrs
Experimental: The test compound was administered in 10% hydroxypropyl-β-cyclodextrin (HP-13-CD), p.o., 60 min before icilin.
% Inhibition=[1−(test compound WDS count/vehicle WDS count)]×100.

[2] = rat, p.o., dose 10 mg/kg, 1.5 hrs
[3] = HEK293, 0.2 μM test compound, read-out: % Inh (%) @0.2 μM, in vitro TRP M8 Activity
[4] = rat, p.o., dose 3 mg/kg, 1.5 hrs

T1 sequence (Q1A7N1 1-1104): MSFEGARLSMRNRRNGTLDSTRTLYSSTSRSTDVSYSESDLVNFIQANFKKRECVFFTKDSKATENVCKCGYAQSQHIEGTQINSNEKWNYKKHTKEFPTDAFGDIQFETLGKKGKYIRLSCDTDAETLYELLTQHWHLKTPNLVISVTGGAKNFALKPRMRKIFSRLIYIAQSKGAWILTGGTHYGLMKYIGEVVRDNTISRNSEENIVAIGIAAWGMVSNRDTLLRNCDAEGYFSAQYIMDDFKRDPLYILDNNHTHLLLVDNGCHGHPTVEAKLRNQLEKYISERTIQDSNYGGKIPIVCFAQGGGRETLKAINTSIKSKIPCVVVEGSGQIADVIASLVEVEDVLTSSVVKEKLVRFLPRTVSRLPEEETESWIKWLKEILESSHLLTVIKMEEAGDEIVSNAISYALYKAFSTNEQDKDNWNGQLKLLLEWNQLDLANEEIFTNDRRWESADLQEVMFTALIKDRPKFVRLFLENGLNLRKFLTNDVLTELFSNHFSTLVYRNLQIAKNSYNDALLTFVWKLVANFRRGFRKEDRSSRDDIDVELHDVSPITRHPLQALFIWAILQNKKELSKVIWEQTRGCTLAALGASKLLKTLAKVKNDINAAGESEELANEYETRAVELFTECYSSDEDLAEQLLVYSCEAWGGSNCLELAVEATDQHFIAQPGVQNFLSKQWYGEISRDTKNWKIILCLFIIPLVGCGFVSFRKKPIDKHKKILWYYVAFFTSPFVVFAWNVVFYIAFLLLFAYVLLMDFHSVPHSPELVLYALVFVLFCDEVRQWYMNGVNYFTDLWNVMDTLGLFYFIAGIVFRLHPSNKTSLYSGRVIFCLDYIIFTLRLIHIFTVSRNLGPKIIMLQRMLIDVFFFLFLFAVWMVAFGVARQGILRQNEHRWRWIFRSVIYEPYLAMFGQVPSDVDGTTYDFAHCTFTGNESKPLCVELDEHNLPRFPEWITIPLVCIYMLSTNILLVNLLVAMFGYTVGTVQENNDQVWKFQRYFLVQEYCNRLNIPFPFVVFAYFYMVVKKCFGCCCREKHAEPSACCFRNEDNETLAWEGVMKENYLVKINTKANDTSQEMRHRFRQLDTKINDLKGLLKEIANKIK

SMILES	IC50 (canine TRPM8)	inhibition at 0.2 µM (canine TRPM8; [3]) [%]	further results
CC(C)c1cc(-c2nc3cc(-c4ccccc4C(F)(F)F)ccc3[nH]2)on1 [Compound 3, 2-(3-Isopropylisoxazol-5-yl)-5-(2-trifluoromethylphenyl)-1H-benzimidazole sodium salt]	22 nM and 24 nM (2×) and 29 nM	–	inhibition in vivo at 30 mg/kg ([1]; rat, dose 30 mg/kg, 1.5 hrs): 48.3%
CCn1nc(C(C)(C)C)cc1-c1nc2cc(-c3ccccc3C(F)(F)F)ccc2[nH]1 [Compound 44, 2-(5-tert-Butyl-2-ethyl-2H-pyrazol-3-yl)-5-(2-trifluoromethylphenyl)-1H-benzimidazole sodium salt]	15.8 nM	–	inhibition in vivo at 10 mg/kg ([1]; Rattus norvegicus, 1.5 h): 30%
Cn1nc(C(C)(C)C)cc1-c1nc2cc(-c3c(F)cccc3C(F)(F)F)ccc2[nH]1 [Compound 61, 2-(5-tert-Butyl-2-methyl-2H-pyrazol-3-yl)-5-(2-fluoro-6-trifluoromethylphenyl)-1H-benzimidazole sodium salt]	7.8 nM and 10 nM	–	inhibition in vivo at 10 mg/kg ([1]; Rattus norvegicus, 1.5 h): 38.8%
Cc1c(C(C)(C)C)nn(C)c1-c1nc2cc(-c3ccccc3C(F)(F)F)ccc2[nH]1 [Compound 76, 2-(5-tert-Butyl-2,4-dimethyl-2H-pyrazol-3-yl)-5-(2-trifluoromethylphenyl)-1H-benzimidazole sodium salt]	6 nM	–	inhibition in vivo at 10 mg/kg ([1]; Rattus norvegicus, 1.5 h): 98.6%
Cc1c(C(C)(C)C)nn(C)c1-c1nc2cc(-c3c(F)cccc3C(F)(F)F)ccc2[nH]1 [Compound 78, 2-(5-tert-Butyl-2,4-dimethyl-2H-pyrazol-3-yl)-5-(2-fluoro-6-trifluoromethyl-phenyl)-1H-benzimidazole sodium salt]	1 nM	–	inhibition in vivo at 10 mg/kg ([1]; Rattus norvegicus, 1.5 h): 99.3%
Cc1cc(-c2ccccc2C(F)(F)F)cc2nc(-c3cc(C(C)(C)C)nn3C)[nH]c12 [Compound 79, 2-(5-tert-Butyl-2-methyl-2H-pyrazol-3-yl)-7-methyl-5-(2-trifluoromethylphenyl)-1H-benzimidazole hydrochloride]	5 nM and 14.4 nM	–	inhibition in vivo at 5.6 mg/kg ([1]; rat, 1.5 hrs): 20.1%
Cn1nc(C(C)(C)C)c(Cl)c1-c1nc2cc(-c3c(F)cccc3C(F)(F)F)cc(Cl)c2[nH]1.[Na] [Compound 113, 2-(5-tert-Butyl-4-chloro-2-methyl-2H-pyrazol-3-yl)-7-chloro-5-(2-fluoro-6-trifluoromethyl-phenyl)-1H-benzimidazole sodium salt]	2.4 nM and 3.5 nM and 4.4 nM	–	% Inh (%) @0.2 μM, in vitro TRP M8 Activity (canine TRPM8; sodium salt, 0.2 µM): 100%; inhibition at 0.2 µM (canine TRPM8; HEK293, read-out: % Inh (%) @0.2 μM, in vitro TRP M8 Activity, 0.2 μM test compound): 99%; inhibition in vivo at 3 mg/kg ([1]; Rattus norvegicus, 1.5 h): 2.8%
Cn1nc(C(C)(C)C)c(C(F)(F)F)c1-c1nc2cc(-c3ccccc3OC(F)(F)F)cc(C(F)(F)F)c2[nH]1 [Compound 188, 2-(5-tert-Butyl-2-methyl-4-trifluoromethyl-2H-pyrazol-3-yl)-5-(2-trifluoromethoxy-phenyl)-7-trifluoromethyl-1H-benzimidazole sodium salt]	35 nM	99	–
Cn1nc2c(c1-c1nc3cc(-c4ccccc4C(F)(F)F)cc(C(F)(F)F)c3[nH]1)CCC21CCCCC1 [Compound 189]	10.6 nM	99	–
CC(C)(C)c1nnc(-c2nc3cc(-c4ccccc4C(F)(F)F)cc(C(F)(F)F)c3[nH]2)o1 [Compound 190, 2-(5-tert-Butyl-[1,3,4]oxadiazol-2-yl)-7-trifluoromethyl-5-(2-trifluoromethyl-phenyl)-1H-benzimidazole sodium salt]	30 nM	–	–
Cn1nc(C(C)(C)C)nc1-c1nc2cc(-c3ccccc3C(F)(F)F)cc(C(F)(F)F)c2[nH]1 [Compound 192, 2-(5-tert-Butyl-2-methyl-2H-[1,2,4]triazol-3-yl)-7-trifluoromethyl-5-(2-trifluoromethyl-phenyl)-1H-benzimidazole sodium salt]	7.5 nM	–	–
Cc1oc(-c2nc3cc(-c4ccccc4C(F)(F)F)cc(C(F)(F)F)c3[nH]2)nc1C(C)(C)C [Compound 194, 2-(4-tert-Butyl-5-methyl-oxazol-2-yl)-7-trifluoromethyl-5-(2-trifluoromethyl-phenyl)-1H-benzimidazole hydrochloride]	–	63	–
Cc1oc(-c2nc3cc(-c4ccccc4OC(F)(F)F)cc(C(F)(F)F)c3[nH]2)nc1C(C)(C)C [Compound 195, 2-(4-tert-Butyl-5-methyl-oxazol-2-yl)-5-(2-trifluoromethoxy-phenyl)-7-trifluoromethyl-1H-benzimidazole hydrochloride]	–	46	–
Cc1oc(-c2nc3cc(-c4ccccc4Cl)cc(C(F)(F)F)c3[nH]2)nc1C(C)(C)C [Compound 196, 2-(4-tert-Butyl-5-methyl-oxazol-2-yl)-5-(2-chloro-phenyl)-7-trifluoromethyl-1H-benzimidazole hydrochloride]	–	39	–

More lines, main results first:

IC50 (canine TRPM8)	inhibition at 0.2 µM (canine TRPM8; [3]) [%]	SMILES	further results
17.4 nM and 12 nM	–	CC(C)(C)c1cc(-c2nc3cc(-c4ccccc4C(F)(F)F)ccc3[nH]2)on1 [Compound 9, 2-(3-tert-Butylisoxazol-5-yl)-5-(2-trifluoromethylphenyl)-1H-benzimidazole sodium salt]	inhibition in vivo at 10 mg/kg [1, 2]: 66.4%
14 nM and 8.2 nM and 2.2 nM	–	Cn1nc(C(C)(C)C)c(Cl)c1-c1nc2cc(-c3ccccc3C(F)(F)F)ccc2[nH]1 [Compound 50, 2-(5-tert-Butyl-4-chloro-2-methyl-2H-pyrazol-3-yl)-5-(2-trifluoromethylphenyl)-1H-benzimidazole sodium salt]	inhibition in vivo at 10 mg/kg [1, 2]: 47.4%
14 nM and 17.3 nM	–	Cn1nc(C(C)(C)C)cc1-c1nc2cc(-c3c(F)cccc3F)ccc2[nH]1 [Compound 58, 2-(5-tert-Butyl-2-methyl-2H-pyrazol-3-yl)-5-(2,6-difluoro-phenyl)-1H-benzimidazole trifluoroacetic acid salt]	inhibition in vivo at 5.6 mg/kg ([1]; rat, 1.5 hrs): 11.2%
3.1 nM and 7.7 nM	–	Cn1nc(C(C)(C)C)c(Cl)c1-c1nc2cc(-c3c(F)cccc3C(F)(F)F)ccc2[nH]1 [Compound 86, 2-(5-tert-Butyl-4-chloro-2-methyl-2H-pyrazol-3-yl)-5-(2-fluoro-6-trifluoromethyl-phenyl)-1H-benzimidazole hydrochloride]	inhibition in vivo at 10 mg/kg [1, 2]: 98.7%
3.6 nM and 5.2 nM and 2.4 nM	–	Cn1nc(C(C)(C)C)c(Cl)c1-c1nc2cc(-c3ccccc3Cl)ccc2[nH]1 [Compound 89, 2-(5-tert-Butyl-4-chloro-2-methyl-2H-pyrazol-3-yl)-5-(2-chloro-phenyl)-1H-benzimidazole hydrochloride]	inhibition in vivo at 10 mg/kg [1, 2]: 91.5%
5.6 nM and 3.5 nM and 5.9 nM	99	Cl.Cn1nc(C(C)(C)C)c(Cl)c1-c1nc2cc(-c3c(F)cccc3F)cc(Cl)c2[nH]1 [Compound 112, 2-(5-tert-Butyl-4-chloro-2-methyl-2H-pyrazol-3-yl)-7-chloro-5-(2,6-difluoro-phenyl)-1H-benzimidazole hydrochloride]	% Inh (%) @0.2 μM, in vitro TRP M8 Activity (canine TRPM8): 99, 99%; inhibition in vivo at 3 mg/kg [1, 4]: 21.2%
2.2 nM and 5.6 nM and 4.9 nM	100	Cn1nc(C(C)(C)C)c(Cl)c1-c1nc2cc(-c3ccccc3Cl)cc(Cl)c2[nH]1.[Na] [Compound 115, 2-(5-tert-Butyl-4-chloro-2-methyl-2H-pyrazol-3-yl)-7-chloro-5-(2-chloro-phenyl)-1H-benzimidazole sodium salt]	% Inh (%) @0.2 μM, in vitro TRP M8 Activity (canine TRPM8): 100, 100%; inhibition in vivo at 3 mg/kg [1, 4]: 45%
2.6 nM and 5.8 nM and 5.5 nM	99	Cl.Cn1nc(C(C)(C)C)c(Cl)c1-c1nc2cc(-c3ccccc3C(F)(F)F)cc(Cl)c2[nH]1 [Compound 116, 2-(5-tert-Butyl-4-chloro-2-methyl-2H-pyrazol-3-yl)-7-chloro-5-(2-trifluoromethyl-phenyl)-1H-benzimidazole hydrochloride]	% Inh (%) @0.2 μM, in vitro TRP M8 Activity (canine TRPM8; hydrochloride, 0.2 µM): 100%; inhibition in vivo at 3 mg/kg [1, 4]: 47.7%
7 nM and 11.3 nM and 8.4 nM	100	Cl.Cn1nc(C(C)(C)C)c(Cl)c1-c1nc2cc(-c3ccccc3OC(F)(F)F)cc(Cl)c2[nH]1 [Compound 117, 2-(5-tert-Butyl-4-chloro-2-methyl-2H-pyrazol-3-yl)-7-chloro-5-(2-trifluoromethoxy-phenyl)-1H-benzimidazole hydrochloride]	% Inh (%) @0.2 μM, in vitro TRP M8 Activity (canine TRPM8): 100, 100%; inhibition in vivo at 3 mg/kg [1, 4]: 7.7%
2.1 nM	–	Cc1c(C(C)(C)C)nn(C)c1-c1nc2cc(-c3ccccc3C(F)(F)F)cc(C(F)(F)F)c2[nH]1 [Compound 120, 2-(5-tert-Butyl-2,4-dimethyl-2H-pyrazol-3-yl)-7-trifluoromethyl-5-(2-trifluoromethyl-phenyl)-1H-benzimidazole hydrochloride]	inhibition in vivo at 3 mg/kg [1, 4]: 44.8%
14.7 nM	100	Cn1nc(C(C)(C)C)c(C(F)(F)F)c1-c1nc2cc(-c3ccccc3C(F)(F)F)cc(C(F)(F)F)c2[nH]1 [Compound 187, 2-(5-tert-Butyl-2-methyl-4-trifluoromethyl-2H-pyrazol-3-yl)-7-trifluoromethyl-5-(2-trifluoromethyl-phenyl)-1H-benzimidazole sodium salt]	–
–	18	Cc1oc(-c2nc3cc(-c4ccccc4F)cc(C(F)(F)F)c3[nH]2)nc1C(C)(C)C [Compound 193, 2-(4-tert-Butyl-5-methyl-oxazol-2-yl)-5-(2-fluoro-phenyl)-7-trifluoromethyl-1H-benzimidazole hydrochloride]	–
